Data as given in paper PMC7156458, “Synthetic biology based construction of biological activity-related library of fungal decalin-containing diterpenoid pyrones” (Nature Communications, 2020).

Target: Aβ42 (Homo sapiens, UniProt P05067)
Experiment: Th-T (thioflavin-T) assay of Aβ42 aggregation
Assay type: biochemical
Settings: for Th-T assay plate reading, mean of three wells (Supplementary Fig. 47): source data, Ab alone and No Ab as controls

Chain of Aβ42 (P05067 672-713): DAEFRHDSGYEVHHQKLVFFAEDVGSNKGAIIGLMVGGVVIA

- Th-T fluorescence, mean of three wells (Aβ42 aggregation time course, reading M117): 3.0425
- Th-T fluorescence, mean of three wells (Aβ42 aggregation time course, reading M118): 3.0715
- Th-T fluorescence, mean of three wells (Aβ42 aggregation time course, reading M119): 3.036
- Th-T fluorescence, mean of three wells (Aβ42 aggregation time course, reading M120): 3.042
- Th-T fluorescence, mean of three wells (Aβ42 aggregation time course, reading M121): 3.063
- Th-T fluorescence, mean of three wells (Aβ42 aggregation time course, reading M122): 3.055
- Th-T fluorescence, mean of three wells (Aβ42 aggregation time course, reading M123): 3.062
- Th-T fluorescence, mean of three wells (Aβ42 aggregation time course, reading M124): 3.061
- Th-T fluorescence, mean of three wells (Aβ42 aggregation time course, reading M125): 3.081
- Th-T fluorescence, mean of three wells (Aβ42 aggregation time course, reading M126): 3.018
- Th-T fluorescence, mean of three wells (Aβ42 aggregation time course, reading M127): 3.038
- Th-T fluorescence, mean of three wells (Aβ42 aggregation time course, reading M128): 3.027
- Th-T fluorescence, mean of three wells (Aβ42 aggregation time course, reading M129): 3.02
- Th-T fluorescence, mean of three wells (Aβ42 aggregation time course, reading M130): 3.02
- Th-T fluorescence, mean of three wells (Aβ42 aggregation time course, reading M131): 3.032
- Th-T fluorescence, mean of three wells (Aβ42 aggregation time course, reading M132): 3.01
- Th-T fluorescence, mean of three wells (Aβ42 aggregation time course, reading M133): 3.061
- Th-T fluorescence, mean of three wells (Aβ42 aggregation time course, reading M134): 3.045
- Th-T fluorescence, mean of three wells (Aβ42 aggregation time course, reading M135): 3.053
- Th-T fluorescence, mean of three wells (Aβ42 aggregation time course, reading M136): 3.034
- Th-T fluorescence, mean of three wells (Supplementary Fig. 47, reading M137): 3.021
- Th-T fluorescence, mean of three wells (Supplementary Fig. 47, reading M138): 3.036
- Th-T fluorescence, mean of three wells (Supplementary Fig. 47, reading M139): 3.036
- Th-T fluorescence, mean of three wells (Supplementary Fig. 47, reading M140): 3.0121
- Th-T fluorescence, mean of three wells (Supplementary Fig. 47, reading M141): 3.01
- Th-T fluorescence, mean of three wells (Supplementary Fig. 47, reading M142): 2.999
- Th-T fluorescence, mean of three wells (Supplementary Fig. 47, reading M143): 3.017
- Th-T fluorescence, mean of three wells (Supplementary Fig. 47, reading M144): 3.0125
- Th-T fluorescence, mean of three wells (Supplementary Fig. 47, reading M145): 3.0288
- Th-T fluorescence, mean of three wells (Supplementary Fig. 47 source data, measurement M37 of time course): 3.017
- Th-T fluorescence, mean of three wells (Supplementary Fig. 47 source data, measurement M38 of time course): 3.04
- Th-T fluorescence, mean of three wells (Supplementary Fig. 47 source data, measurement M39 of time course): 3.05
- Th-T fluorescence, mean of three wells (Supplementary Fig. 47 source data, measurement M40 of time course): 3.045
- Th-T fluorescence, mean of three wells (Supplementary Fig. 47 source data, measurement M41 of time course): 3.085
- Th-T fluorescence, mean of three wells (Supplementary Fig. 47 source data, measurement M42 of time course): 3.072
- Th-T fluorescence, mean of three wells (Supplementary Fig. 47 source data, measurement M43 of time course): 3.079
- Th-T fluorescence, mean of three wells (Supplementary Fig. 47 source data, measurement M44 of time course): 3.068
- Th-T fluorescence, mean of three wells (Supplementary Fig. 47 source data, measurement M45 of time course): 3.111
- Th-T fluorescence, mean of three wells (Supplementary Fig. 47 source data, measurement M46 of time course): 3.079
- Th-T fluorescence, mean of three wells (Supplementary Fig. 47 source data, measurement M47 of time course): 3.097
- Th-T fluorescence, mean of three wells (Supplementary Fig. 47 source data, measurement M48 of time course): 3.117
- Th-T fluorescence, mean of three wells (Supplementary Fig. 47 source data, measurement M49 of time course): 3.11
- Th-T fluorescence, mean of three wells (Supplementary Fig. 47 source data, measurement M50 of time course): 3.114
- Th-T fluorescence, mean of three wells (Supplementary Fig. 47 source data, measurement M51 of time course): 3.119
- Th-T fluorescence, mean of three wells (Supplementary Fig. 47 source data, measurement M52 of time course): 3.113
- Th-T fluorescence, mean of three wells (Supplementary Fig. 47 source data, measurement M53 of time course): 3.12
- Th-T fluorescence, mean of three wells (Supplementary Fig. 47 source data, measurement M54 of time course): 3.1191
- Th-T fluorescence, mean of three wells (Supplementary Fig. 47 source data, measurement M55 of time course): 3.1238
- Th-T fluorescence, mean of three wells (Supplementary Fig. 47 source data, measurement M56 of time course): 3.106
- Th-T assay plate reading, mean of three wells (Supplementary Fig. 47) (measurement M1): 0.3106
- Th-T assay plate reading, mean of three wells (Supplementary Fig. 47) (measurement M2): 0.3077
- Th-T assay plate reading, mean of three wells (Supplementary Fig. 47) (measurement M3): 0.3313
- Th-T assay plate reading, mean of three wells (Supplementary Fig. 47) (measurement M4): 0.3664
- Th-T assay plate reading, mean of three wells (Supplementary Fig. 47) (measurement M5): 0.4514
- Th-T assay plate reading, mean of three wells (Supplementary Fig. 47) (measurement M6): 0.4846
- Th-T assay plate reading, mean of three wells (Supplementary Fig. 47) (measurement M7): 0.512
- Th-T assay plate reading, mean of three wells (Supplementary Fig. 47) (measurement M8): 0.5981
- Th-T assay plate reading, mean of three wells (Supplementary Fig. 47) (measurement M9): 0.6456
- Th-T assay plate reading, mean of three wells (Supplementary Fig. 47) (measurement M10): 0.6881
- Th-T assay plate reading, mean of three wells (Supplementary Fig. 47) (measurement M11): 0.7275
- Th-T assay plate reading, mean of three wells (Supplementary Fig. 47) (measurement M12): 0.7567
- Th-T assay plate reading, mean of three wells (Supplementary Fig. 47) (measurement M13): 0.7872
- Th-T assay plate reading, mean of three wells (Supplementary Fig. 47) (measurement M14): 0.8218
- Th-T assay plate reading, mean of three wells (Supplementary Fig. 47) (measurement M15): 0.8797
- Th-T assay plate reading, mean of three wells (Supplementary Fig. 47) (measurement M16): 0.9731
- Th-T fluorescence, mean of three wells (reading M17, Supplementary Fig. 47 source data): 1.192
- Th-T fluorescence, mean of three wells (reading M18, Supplementary Fig. 47 source data): 1.512
- Th-T fluorescence, mean of three wells (reading M19, Supplementary Fig. 47 source data): 1.858
- Th-T fluorescence, mean of three wells (reading M20, Supplementary Fig. 47 source data): 2.193
- Th-T fluorescence, mean of three wells (reading M21, Supplementary Fig. 47 source data): 2.479
- Th-T fluorescence, mean of three wells (reading M22, Supplementary Fig. 47 source data): 2.615
- Th-T fluorescence, mean of three wells (reading M23, Supplementary Fig. 47 source data): 2.7089
- Th-T fluorescence, mean of three wells (reading M24, Supplementary Fig. 47 source data): 2.736
- Th-T fluorescence, mean of three wells (reading M25, Supplementary Fig. 47 source data): 2.775
- Th-T fluorescence, mean of three wells (reading M26, Supplementary Fig. 47 source data): 2.797
- Th-T fluorescence, mean of three wells (reading M27, Supplementary Fig. 47 source data): 2.826
- Th-T fluorescence, mean of three wells (reading M28, Supplementary Fig. 47 source data): 2.834
- Th-T fluorescence, mean of three wells (reading M29, Supplementary Fig. 47 source data): 2.861
- Th-T fluorescence, mean of three wells (reading M30, Supplementary Fig. 47 source data): 2.901
- Th-T fluorescence, mean of three wells (reading M31, Supplementary Fig. 47 source data): 2.9009
- Th-T fluorescence, mean of three wells (reading M32, Supplementary Fig. 47 source data): 2.941
- Th-T fluorescence, mean of three wells (reading M33, Supplementary Fig. 47 source data): 2.954
- Th-T fluorescence, mean of three wells (reading M34, Supplementary Fig. 47 source data): 2.9825
- Th-T fluorescence, mean of three wells (reading M35, Supplementary Fig. 47 source data): 2.976
- Th-T fluorescence, mean of three wells (reading M36, Supplementary Fig. 47 source data): 3.001
- Th-T fluorescence, mean of three wells (time course, reading M57): 3.126
- Th-T fluorescence, mean of three wells (time course, reading M58): 3.154
- Th-T fluorescence, mean of three wells (time course, reading M59): 3.098
- Th-T fluorescence, mean of three wells (time course, reading M60): 3.135
- Th-T fluorescence, mean of three wells (time course, reading M61): 3.131
- Th-T fluorescence, mean of three wells (time course, reading M62): 3.132
- Th-T fluorescence, mean of three wells (time course, reading M63): 3.122
- Th-T fluorescence, mean of three wells (time course, reading M64): 3.115
- Th-T fluorescence, mean of three wells (time course, reading M65): 3.114
- Th-T fluorescence, mean of three wells (time course, reading M66): 3.129
- Th-T fluorescence, mean of three wells (time course, reading M67): 3.159
- Th-T fluorescence, mean of three wells (time-course reading M97, Supplementary Fig. 47 source data): 3.103
- Th-T fluorescence, mean of three wells (time-course reading M98, Supplementary Fig. 47 source data): 3.123
- Th-T fluorescence, mean of three wells (time-course reading M99, Supplementary Fig. 47 source data): 3.102
- Th-T fluorescence, mean of three wells (time-course reading M100, Supplementary Fig. 47 source data): 3.074
- Th-T fluorescence, mean of three wells (time-course reading M101, Supplementary Fig. 47 source data): 3.118
- Th-T fluorescence, mean of three wells (time-course reading M102, Supplementary Fig. 47 source data): 3.1
- Th-T fluorescence, mean of three wells (time-course reading M103, Supplementary Fig. 47 source data): 3.088
- Th-T fluorescence, mean of three wells (time-course reading M104, Supplementary Fig. 47 source data): 3.101
- Th-T fluorescence, mean of three wells (time-course reading M105, Supplementary Fig. 47 source data): 3.114
- Th-T fluorescence, mean of three wells (time-course reading M106, Supplementary Fig. 47 source data): 3.076
- Th-T fluorescence, mean of three wells (time-course reading M107, Supplementary Fig. 47 source data): 3.094
- Th-T fluorescence, mean of three wells (time-course reading M108, Supplementary Fig. 47 source data): 3.063
- Th-T fluorescence, mean of three wells (time-course reading M109, Supplementary Fig. 47 source data): 3.057
- Th-T fluorescence, mean of three wells (time-course reading M110, Supplementary Fig. 47 source data): 3.049
- Th-T fluorescence, mean of three wells (time-course reading M111, Supplementary Fig. 47 source data): 3.101
- Th-T fluorescence, mean of three wells (time-course reading M112, Supplementary Fig. 47 source data): 3.097
- Th-T fluorescence, mean of three wells (time-course reading M113, Supplementary Fig. 47 source data): 3.03
- Th-T fluorescence, mean of three wells (time-course reading M114, Supplementary Fig. 47 source data): 3.07
- Th-T fluorescence, mean of three wells (time-course reading M115, Supplementary Fig. 47 source data): 3.098
- Th-T fluorescence, mean of three wells (time-course reading M116, Supplementary Fig. 47 source data): 3.06
Structure (SMILES): C=C1CC[C@H]2[C@]3(C)C[C@H](C=C(C)C)O[C@H]3CC[C@]2(C)[C@@H]1Cc1c(O)c(C)c(C)oc1=O [Compound 6, subglutinol B]
